Measurements published in US8431593B2, “Heteroaryl amide derivatives” (H. Lundbeck A/S, priority 2006, dated 2013).

Target: T1, P2X7 receptor (Homo sapiens, UniProt Q99572)
T1 construct: host or cells: SH-SY5Y
T1 sequence (Q99572 1-595): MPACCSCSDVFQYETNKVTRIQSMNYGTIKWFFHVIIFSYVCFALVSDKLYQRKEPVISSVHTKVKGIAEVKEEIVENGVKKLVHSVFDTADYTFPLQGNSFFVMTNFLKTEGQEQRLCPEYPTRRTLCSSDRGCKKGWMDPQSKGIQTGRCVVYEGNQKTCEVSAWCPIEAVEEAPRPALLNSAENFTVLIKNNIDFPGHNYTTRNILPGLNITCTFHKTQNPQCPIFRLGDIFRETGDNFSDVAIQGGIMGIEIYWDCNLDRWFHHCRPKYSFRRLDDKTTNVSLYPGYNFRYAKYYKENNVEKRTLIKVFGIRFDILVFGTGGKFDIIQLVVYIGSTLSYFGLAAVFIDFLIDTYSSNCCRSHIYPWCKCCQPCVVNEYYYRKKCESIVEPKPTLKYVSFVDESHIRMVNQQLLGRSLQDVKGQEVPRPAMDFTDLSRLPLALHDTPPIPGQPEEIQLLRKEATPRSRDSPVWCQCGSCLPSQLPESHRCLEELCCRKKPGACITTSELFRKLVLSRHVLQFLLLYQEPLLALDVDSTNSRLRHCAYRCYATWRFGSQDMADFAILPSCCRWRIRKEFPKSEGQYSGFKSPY
Assay: P2X7 calcium mobilization assay, high throughput, antagonist activity (Example 4A)
Type: cell-based
Settings: 50% decrease in the fluorescence response of cells exposed to 80 μM of 2′(3′)-O-(4-benzoyl-benzoyl)adenosine 5′-triphosphate; determined as in Example 4A; read-out: IC50
Procedure, shortened: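 100,000 cells/well, plated day -1. Dye 1 h → rinse → compound 1 h, RT → FLIPR^TETRA Ca2+ mobilization. Max RFU minus mean negative control (no agonist); mean agonist-well max as positive control.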

IC50, < 2000 nM:
O=C(NCC1(c2cccnc2)CCCCC1)c1cccc2nc(Cn3nnc(CCO)n3)cn12 [Compound 921, 2-{[5-(2-hydroxyethyl)-2H-tetrazol-2-yl]methyl}-N-[(1-pyridin-3-ylcyclohexyl)methyl] imidazo[1,2-a] pyridine-5-carboxamide]
Cc1ccc(C2(CNC(=O)c3cccc4nc(Cn5nnc(CCO)n5)cn34)CCCCC2)cn1 [Compound 922, 2-{[5-(2-hydroxyethyl)-2H-tetrazol-2-yl]methyl}-N-{[1-(6-methylpyridin-3-yl)cyclohexyl]methyl} imidazo[1,2-a] pyridine-5-carboxamide]
CC1=NCCN1Cc1cn2c(C(=O)NCC(CC(C)C)c3ccc(Cl)cc3)cccc2n1 (stereo not drawn) [Compound 923, N-[2-(4-chlorophenyl)-4-methylpentyl]-2-[(2-methyl-4,5-dihydro-1H-imidazol-1-yl)methyl]imidazo[1,2-a]pyridine-5-carboxamide]
CCCC(CNC(=O)c1cccc2nc(CC(=O)N[C@@H]3CCCN(C(=O)OC(C)(C)C)C3)cn12)c1ccc(Cl)cc1 (stereo partly drawn) [Compound 924, tert-butyl (3R)-3-{[(5-{[2-(4-chlorophenyl)pentyl]carbamoyl}imidazo [1,2-a]pyridin-2-yl)acetyl]amino} piperidine-1-carboxylate]
CCCC(CNC(=O)c1cccc2nc(CC(=O)N[C@@H]3CCCNC3)cn12)c1ccc(Cl)cc1 (stereo partly drawn) [Compound 925, N-[2-(4-chlorophenyl)pentyl]-2-{2-oxo-2-[(3R)-piperidin-3-ylamino]ethyl} imidazo [1,2-a]pyridine-5-carboxamide]
O=C(Cc1cn2c(C(=O)NCC3(c4ccc(Cl)cc4)CCOCC3)cccc2n1)N[C@@H]1CCCNC1 [Compound 926, N-{[4-(4-chlorophenyl)tetrahydro-2H-pyran-4-yl]methyl}-2-{2-oxo-2-[(3R)-piperidin-3-ylamino]ethyl}imidazo [1,2-a]pyridine-5-carboxamide]
CC(C)CC(CNC(=O)c1cccc2nc(CC(=O)N3CCC[C@@H](NC(=O)OC(C)(C)C)C3)cn12)c1ccc(Cl)cc1 (stereo partly drawn) [Compound 928, tert-butyl {(3R)-1-[(5-{[2-(4-chlorophenyl)-4-methylpentyl]carbamoyl}imidazo[1,2-a]pyridin-2-yl)acetyl]piperidin-3-yl}carbamate]
CCCC(CNC(=O)c1cccc2nc(CC(=O)N3CCC[C@@H](N)C3)cn12)c1ccc(Cl)cc1 (stereo partly drawn) [Compound 929, 2-{2-[(3R)-3-aminopiperidin-1-yl]-2-oxoethyl}-N-[2-(4-chlorophenyl)pentyl] imidazo[1,2-a] pyridine-5-carboxamide]
CCOC(=O)C(Cc1ccccn1)c1cn2c(C(=O)NCC(CC(C)C)c3ccc(Cl)cc3)cccc2n1 (stereo not drawn) [Compound 930, ethyl 2-(5-{[2-(4-chlorophenyl)-4-methylpentyl]carbamoyl}imidazo[1,2-a]pyridin-2-yl)-3-pyridin-2-ylpropanoate]
CCOC(=O)C(Cc1ccccc1)c1cn2c(C(=O)NCC(CC(C)C)c3ccc(Cl)cc3)cccc2n1 (stereo not drawn) [Compound 931, ethyl 2-(5-{[2-(4-chlorophenyl)-4-methylpentyl]carbamoyl}imidazo[1,2-a]pyridin-2-yl)-3-phenylpropanoate]
CCOC(=O)C(Cc1ccc(Cl)cc1)c1cn2c(C(=O)NCC(CC(C)C)c3ccc(Cl)cc3)cccc2n1 (stereo not drawn) [Compound 932, ethyl 3-(4-chlorophenyl)-2-(5-{[2-(4-chlorophenyl)-4-methylpentyl]carbamoyl}imidazo [1,2-a]pyridin-2-yl)propanoate]
CCOC(=O)C(Cc1ccccc1)c1cn2c(C(=O)NCC3(c4ccc(Cl)cc4)CCCCC3)cccc2n1 (stereo not drawn) [Compound 933, ethyl 2-[5-({[1-(4-chlorophenyl)cyclohexyl]methyl}carbamoyl)imidazo[1,2-a]pyridin-2-yl]-3-phenylpropanoate]
CCOC(=O)C(Cc1ccc(Cl)cc1)c1cn2c(C(=O)NCC3(c4ccc(Cl)cc4)CCCCC3)cccc2n1 (stereo not drawn) [Compound 934, ethyl 3-(4-chlorophenyl)-2-[5-({[1-(4-chlorophenyl)cyclohexyl]methyl}carbamoyl)imidazo[1,2-a]pyridin-2-yl]propanoate]
O=C(NCC1(c2ccc(Cl)cc2)CCCCC1)c1cccc2nc(C(Cc3ccc(Cl)cc3)C(=O)O)cn12 (stereo not drawn) [Compound 935, 3-(4-chlorophenyl)-2-[5-({[1-(4-chlorophenyl)cyclohexyl]methyl}carbamoyl)imidazo[1,2-a]pyridin-2-yl] propanoic acid]
O=C(NCC1(c2ccc(Cl)cc2)CCCCC1)c1cccc2nc(C(Cc3ccccc3)C(=O)O)cn12 (stereo not drawn) [Compound 936, 2-[5-({[1-(4-chlorophenyl)cyclohexyl]methyl}carbamoyl)imidazo[1,2-a]pyridin-2-yl]-3-phenylpropanoic acid]
O=C(NCC1(c2ccc(Cl)cc2)CCCCC1)c1cccc2nc(C(Cc3ccccn3)C(=O)O)cn12 (stereo not drawn) [Compound 937, 2-[5-({[1-(4-chlorophenyl)cyclohexyl]methyl}carbamoyl)imidazo[1,2-a]pyridin-2-yl]-3-pyridin-2-ylpropanoic acid]
CC(C)CC(CNC(=O)c1cccc2nc(C(Cc3ccccn3)C(=O)O)cn12)c1ccc(Cl)cc1 (stereo not drawn) [Compound 938, 2-(5-{[2-(4-chlorophenyl)-4-methylpentyl]carbamoyl}imidazo[1,2-a]pyridin-2-yl)-3-pyridin-2-ylpropanoic acid]
CC(C)CC(CNC(=O)c1cccc2nc(C(Cc3ccccc3)C(=O)O)cn12)c1ccc(Cl)cc1 (stereo not drawn) [Compound 939, 2-(5-{[2-(4-chlorophenyl)-4-methylpentyl]carbamoyl}imidazo[1,2-a]pyridin-2-yl)-3-phenylpropanoic acid]
CC(C)CC(CNC(=O)c1cccc2nc(C(Cc3ccc(Cl)cc3)C(=O)O)cn12)c1ccc(Cl)cc1 (stereo not drawn) [Compound 940, 3-(4-chlorophenyl)-2-(5-{[2-(4-chlorophenyl)-4-methylpentyl]carbamoyl}imidazo[1,2-a]pyridin-2-yl) propanoic acid]
O=C(O)CCc1cn2c(C(=O)NCC3(c4ccc(C(F)(F)F)cc4)CCCCC3)cccc2n1 [Compound 941, 3-{5-[({1-[4-(trifluoromethyl)phenyl]cyclohexyl}methyl)carbamoyl]imidazo [1,2-a]pyridin-2-yl}propanoic acid]
CC(C)CC(CNC(=O)c1cccc2nc(CN3CC[C@@H](O)C3)cn12)c1ccc(Cl)cc1 (stereo partly drawn) [Compound 942, N-[2-(4-chlorophenyl)-4-methylpentyl]-2-{[(3R)-3-hydroxypyrrolidin-1-yl]methyl} imidazo[1,2-a]pyridine-5-carboxamide]
CC(C)CC(CNC(=O)c1cccc2nc(CN(C)CCO)cn12)c1ccc(Cl)cc1 (stereo not drawn) [Compound 943, N-[2-(4-chlorophenyl)-4-methylpentyl]-2-{[(2-hydroxyethyl)(methyl)amino]methyl}imidazo [1,2-a]pyridine-5-carboxamide]
CCOC(=O)C1(c2cn3c(C(=O)NCC45CC6CC(CC(C6)C4)C5)cccc3n2)CCOCC1 [Compound 944, ethyl 4-{5-[(adamantan-1-ylmethyl)carbamoyl]imidazo[1,2-a]pyridin-2-yl}tetrahydro-2H-pyran-4-carboxylate]
O=C(NCC12CC3CC(CC(C3)C1)C2)c1cccc2nc(C3(C(=O)O)CCOCC3)cn12 [Compound 945, 4-{5-[(adamantan-1-ylmethyl)carbamoyl]imidazo[1,2-a]pyridin-2-yl}tetrahydro-2H-pyran-4-carboxylic acid]
CC(C)CC(CNC(=O)c1cccc2nc(CC(=O)N3CCC[C@@H](N)C3)cn12)c1cccnc1 (stereo partly drawn) [Compound 946, 2-{2-[(3R)-3-aminopiperidin-1-yl]-2-oxoethyl}-N-(4-methyl-2-pyridin-3-ylpentyl) imidazo[1,2-a]pyridine-5-carboxamide]
N[C@@H]1CCCN(C(=O)Cc2cn3c(C(=O)NCC4(c5cccnc5)CCCCC4)cccc3n2)C1 [Compound 947, 2-{2-[(3R)-3-aminopiperidin-1-yl]-2-oxoethyl}-N-[(1-pyridin-3-ylcyclohexyl)methyl] imidazo[1,2-a] pyridine-5-carboxamide]
Cc1ccc(C2(CNC(=O)c3cccc4nc(CC(=O)N5CCC[C@@H](N)C5)cn34)CCCCC2)cn1 [Compound 948, 2-{2-[(3R)-3-amino-piperidin-1-yl]-2-oxoethyl}-N-{[1-(6-methylpyridin-3-yl)cyclohexyl]methyl} imidazo[1,2-a] pyridine-5-carboxamide]
